“Also recorded” adds a separate entry of the source.
Columns and labels:
IgM+/CD5+ cells = assay: TCL1 adoptive transfer mouse model for CLL; type: in vivo; settings: after 2 weeks of treatment, vs untreated mice
Procedure: (§1) We tested compound 3c in the TCL1 adoptive transfer mouse model for CLL.[42] In this experiment, immune-competent healthy mice received an adoptive transfer of 4 × 10^7 TCL1 splenocytes obtained from full leukemic TCL1 transgenic mice by intravenous injection (Figure 4D). IgM+/CD5+ cells were monitored weekly, and treatment (or mock treatment) was started 4 weeks after transplantation when CD5+ were > 30% in the blood. The mice received a solution containing sulfamate 3c (0.16 mg/mL in 1% cyclodextrin water) ad libitum in the drinking water. […] Moreover, spleens were isolated from the mice after 2 weeks of treatment and quantified.
TCL1 mice for this model were generated as previously described.[42] For this experiment, TCL1 mice approximately 12 months of age with a malignant cell population higher than 60% in the PB were sacrificed. Their spleens were excised, and 4 × 10^7 cells resuspended in PBS^–/– were injected into the tail vein of 6 week old recipient mice. Progression of the disease was followed in the PB by using flow cytometry for the +IgM/+CD5 population. Mice with >30% IgM+/CD5+ cells were considered to be diseased and were used for further analysis.
Isolated cells were stained using specific antibodies (IgM-PE, CD5-APC, BioLegend) in staining buffer (0.5% bovine serum albumin in phosphate-buffered saline) for 30 min in 4 °C in dark then washed twice. […]

BTK [1] = molecular target: T1, BTK (Mus musculus, UniProt P35991); assay: BTK engagement in treated mice spleens; type: in vivo; settings: spleen lysates, ibrutinib alkyne analogue, TAMRA-azide
T1 construct: the dissected spleens were extracted with RIPA buffer and incubated with an ibrutinib alkyne analogue; from tissue; host or cells: spleen of mice with adoptively transferred TCL1 leukemic splenocytes
T1 sequence (P35991 whole entry): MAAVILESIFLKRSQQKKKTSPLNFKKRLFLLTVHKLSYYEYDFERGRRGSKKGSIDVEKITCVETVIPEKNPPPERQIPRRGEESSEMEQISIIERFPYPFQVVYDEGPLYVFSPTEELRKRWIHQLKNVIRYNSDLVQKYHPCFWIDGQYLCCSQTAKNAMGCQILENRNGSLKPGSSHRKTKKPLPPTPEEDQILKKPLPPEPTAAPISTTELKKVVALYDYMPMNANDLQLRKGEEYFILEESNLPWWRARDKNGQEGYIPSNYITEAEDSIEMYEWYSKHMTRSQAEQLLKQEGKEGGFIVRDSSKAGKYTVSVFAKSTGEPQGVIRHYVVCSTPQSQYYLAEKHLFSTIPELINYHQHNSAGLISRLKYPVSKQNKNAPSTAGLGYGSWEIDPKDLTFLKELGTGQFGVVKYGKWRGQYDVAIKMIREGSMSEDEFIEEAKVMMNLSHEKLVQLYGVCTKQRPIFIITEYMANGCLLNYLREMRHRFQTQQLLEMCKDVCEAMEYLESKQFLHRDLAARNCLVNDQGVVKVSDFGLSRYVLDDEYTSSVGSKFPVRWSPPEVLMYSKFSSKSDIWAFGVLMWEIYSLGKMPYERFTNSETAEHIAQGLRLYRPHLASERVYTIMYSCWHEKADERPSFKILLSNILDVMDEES
Procedure: as §1
Pellets of harvested spleens were lysed using RIPA buffer (Sigma, R0278) and clarified at 21,000g for 15 min at 4 °C, and protein concentration was determined using BCA protein assay (Thermo Scientific, 23225). Lysates were diluted to 2 mg/mL, 50 μL per sample, and incubated for 1 h in room temperature with 1 μM probe 4 to label BTK. Lysates were then clicked to TAMRA-azide and imaged using ChemiDoc MP (546 nm) as described in the in-gel fluorescence protocol.

BTK [2] = molecular target: BTK (Homo sapiens, UniProt Q06187); assay: BTK activity (autophosphorylation) in Mino cells, Western blot; type: cell-based; design: endogenous in cells; host or cells: Mino cells; settings: anti-IgM activation, Western blot normalized to β-actin
Sequence of BTK (Homo sapiens, UniProt Q06187) (Q06187 whole entry): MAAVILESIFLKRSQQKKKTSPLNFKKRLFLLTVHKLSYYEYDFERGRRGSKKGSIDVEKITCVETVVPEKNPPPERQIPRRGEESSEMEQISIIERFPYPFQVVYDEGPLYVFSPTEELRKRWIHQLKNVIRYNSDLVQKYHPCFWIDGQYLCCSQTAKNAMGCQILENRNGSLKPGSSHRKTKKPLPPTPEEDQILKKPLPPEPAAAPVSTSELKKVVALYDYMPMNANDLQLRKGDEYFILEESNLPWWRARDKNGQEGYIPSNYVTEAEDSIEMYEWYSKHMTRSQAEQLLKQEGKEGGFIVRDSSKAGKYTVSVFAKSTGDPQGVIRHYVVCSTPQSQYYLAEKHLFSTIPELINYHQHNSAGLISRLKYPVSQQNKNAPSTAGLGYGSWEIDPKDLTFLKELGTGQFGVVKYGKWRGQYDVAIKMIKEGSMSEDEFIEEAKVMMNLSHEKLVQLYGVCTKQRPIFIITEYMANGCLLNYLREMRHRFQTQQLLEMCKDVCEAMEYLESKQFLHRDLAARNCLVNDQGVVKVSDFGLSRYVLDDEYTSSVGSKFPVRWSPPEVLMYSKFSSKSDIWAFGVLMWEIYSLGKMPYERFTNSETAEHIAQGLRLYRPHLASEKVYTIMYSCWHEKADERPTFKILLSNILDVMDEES
Procedure: To assess the cellular efficacy of these compounds, we followed the inhibition of BTK autophosphorylation in Mino cells. After 1 h of pre-incubation with the inhibitors and B-cell activation with an anti-IgM antibody, BTK autophosphorylation was followed by Western blot.
The cell pellets were subjected to immunoblotting, and Western blots were performed for p-BTK, BTK, and β-actin.
Cell pellets were washed with ice-cold PBS and lysed using RIPA buffer (Sigma, R0278). […] Samples containing 50 μg total protein were prepared with 4× LDS sample buffer (NuPAGE, Thermo Scientific, NP0007) and 20 mM DTT, which were then resolved on a 4–20% Bis–Tris gel (GeneScript SurePAGE, M00657). […] An EZ-ECL Kit (Biological Industries, 20-500-1000) was used to detect HRP activity.

[3] = Metabolic stability in human liver microsomes; settings: 5 min incubation
Mino cells = assay: isoDTB ABPP in Mino cells; type: cell-based, human; settings: for isoDTB-ABPP H/L Ratio: mino cells, 1 µM compound, 2h
Procedure: This was followed by a reaction with biotin-azide using CuAAC, enrichment of the labeled proteins, and their quantification by tryptic digestion and LC/MS/MS analysis.
The preparation of IsoDTB-ABPP samples was performed essentially as described in Zanon et al.2.
Experiments were conducted in quadruplicates. […] For lysis, samples containing 10 million cells were dispersed in 0.5 mL of RIPA buffer (Sigma, R0278),
sample was diluted to 1.7 mg/mL using PBS. To each sample, 5 µL of 10 mM IA-alkyne was added, followed by 1 h incubation at room temperature in the dark. 10 µL of 5 mM DesThioTag was added (Light for the compound treated samples, heavy for the DMSO-treated samples), followed by 18 µL of CuSO4:THPTA (100 mM), and the click reaction was initiated by addition of 15 µL of 150 mM sodium ascorbate (freshly dissolved in water). The samples were incubated on a rotary shaker for 1 h at room temperature.
mL water on ice, vortexed and centriduged at 3200 g for 10 min at 4°C. The top layer was aspirated, and 3 mL methanol was added, followed by centrifugation and aspiration of the supernatant. The pellets were air dried and stored at -80°C until the following treatment. The pellets were resuspended in 0.3 mL of 8 M urea freshly dissolved in PBS using probe sonication (8 sec total at 40% amplitude, 1 sec on/2 sec off, at room temperature). Following the resuspension, the samples were diluted with 1 mL of PBS. Then each sample was mixed with 1.3 mL of slurry containing 110 µL of streptavidin agarose beads (Thermo
The samples were incubated with rotation for 3 h at room temperature. The beads were pelleted by centrifugation at 2000 g for 2 min, transferred to spin columns, and washed 3 times with 0.1% IGEPAL/PBS, 3 times PBS, and 3 times water.
The beads were then suspended in 8 M Urea/50 mM ammonium bicarbonate, and 15 µL of 31 mg/mL DTT […]

Q: Which results are given for `CNS(=O)(=O)OCC(=O)N1CCC[C@@H](n2nc(-c3ccc(Oc4ccccc4)cc3)c3c(N)ncnc32)C1` [3c]?
A: spleen size (IgM+/CD5+ cells): decreased spleen size; also recorded: visually smaller; BTK engagement in vivo (probe labeling of spleen lysate) (BTK [1]): do not show probe labeling; IC50 (BTK [2]): 0.0036 µM; compound remaining intact [3]: over 30%; number of off-targets (H/L ratio > 2) (Mino cells; Mino cells, 1 μM, 2 h): 10; isoDTB-ABPP H/L Ratio (Mino cells; P27708_C379): 5.926; isoDTB-ABPP H/L Ratio (Mino cells; P48643_C377): 5.696

Q: Which IC50 (BTK [2]) does the source give for `Nc1ncnc2c1c(-c1ccc(Oc3ccccc3)cc1)nn2[C@@H]1CCCN(C(=O)COS(=O)(=O)NCc2ccccc2)C1` [3d] here?
A: 0.164 µM

Source: PMC9936582, “Sulfamate Acetamides as Self-Immolative Electrophiles for Covalent Ligand-Directed Release Chemistry” (Journal of the American Chemical Society, 2023)
